How the values were obtained:
Assay in all cases: Kinase inhibitor library screening, PrestoBlue cell viability, 1 or 10 μM, 72 h
A375 cells (parental) = conditions: A375 Parental, 72 h
[1] = tested on: A375-GP cells (Dabrafenib-resistant); conditions: A375 GP, 72 h
[2] = tested on: 501Mel-XP cells (Vemurafenib-resistant); conditions: 501Mel XP, 72 h; for Cell viability in kinase inhibitor library screening, 501Mel XP, 1μΜ / Cell viability in kinase inhibitor library screening, 501Mel XP, 10μΜ: in %
501Mel cells (parental) = conditions: 501Mel Parental, 72 h; for Cell viability in kinase inhibitor library screening, 501Mel Parental, 1μΜ / Cell viability in kinase inhibitor library screening, 501Mel Parental, 10μΜ: in %
How it was run: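 Each compound was applied to parental melanoma cells and to derivatives made resistant to Vemurafenib or Dabrafenib. After treatment, viability was read with PrestoBlue on a plate reader and expressed as % of untreated cells, with each line run at least in duplicate.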

[3] = tested on: IGR37-GP cells (Dabrafenib-resistant); conditions: IGR37 GP, 72 h; for Cell viability in kinase inhibitor library screening, IGR37 GP, 1μΜ: in %
[4] = tested on: IGR37-XP cells (Vemurafenib-resistant); conditions: IGR37 XP, 72 h; for Cell viability in kinase inhibitor library screening, IGR37 XP, 1μΜ: in %
IGR37 cells (parental) = conditions: IGR37 Parental, 72 h; for Cell viability in kinase inhibitor library screening, IGR37 Parental, 1μΜ / Cell viability in kinase inhibitor library screening, IGR37 Parental, 10μΜ: in %
[5] = tested on: 501Mel-GP cells (Dabrafenib-resistant); conditions: 501Mel GP, 72 h; for Cell viability in kinase inhibitor library screening, 501Mel GP, 1μΜ / Cell viability in kinase inhibitor library screening, 501Mel GP, 10μΜ: in %
[6] = tested on: A375-XP cells (Vemurafenib-resistant); conditions: A375 XP, 72 h

SMILES	Cell viability in kinase inhibitor library screening, A375 Parental, 10μΜ (A375 cells (parental); 10μΜ)	Cell viability in kinase inhibitor library screening, A375 Parental, 1μΜ (A375 cells (parental); 1μΜ)	Cell viability in kinase inhibitor library screening, A375 GP, 1μΜ ([1]; 1μΜ)	Cell viability in kinase inhibitor library screening, A375 GP, 10μΜ ([1]; 10μΜ)	Cell viability in kinase inhibitor library screening, 501Mel XP, 1μΜ ([2]; 1μΜ)	Cell viability in kinase inhibitor library screening, 501Mel XP, 10μΜ ([2]; 10μΜ)	Cell viability in kinase inhibitor library screening, 501Mel Parental, 1μΜ (501Mel cells (parental); 1μΜ)	Cell viability in kinase inhibitor library screening, 501Mel Parental, 10μΜ (501Mel cells (parental); 10μΜ)	Cell viability in kinase inhibitor library screening, IGR37 GP, 10μΜ ([3]; 10μΜ)	Cell viability in kinase inhibitor library screening, IGR37 GP, 1μΜ ([3]; 1μΜ)	Cell viability in kinase inhibitor library screening, IGR37 XP, 10μΜ ([4]; 10μΜ)	Cell viability in kinase inhibitor library screening, IGR37 XP, 1μΜ ([4]; 1μΜ)	Cell viability in kinase inhibitor library screening, IGR37 Parental, 1μΜ (IGR37 cells (parental); 1μΜ)	Cell viability in kinase inhibitor library screening, IGR37 Parental, 10μΜ (IGR37 cells (parental); 10μΜ)	Cell viability in kinase inhibitor library screening, 501Mel GP, 1μΜ ([5]; 1μΜ)	Cell viability in kinase inhibitor library screening, 501Mel GP, 10μΜ ([5]; 10μΜ)	Cell viability in kinase inhibitor library screening, A375 XP, 1μΜ ([6]; 1μΜ)	Cell viability in kinase inhibitor library screening, A375 XP, 10μΜ ([6]; 10μΜ)	cell viability (kinase inhibitor library screening) (A375 cells (parental); 10μΜ)	cell viability (kinase inhibitor library screening) ([1]; 1μΜ)	other results
C[C@@H](Oc1cc(-n2cnc3ccc(CN4CCN(C)CC4)cc32)sc1C(N)=O)c1ccccc1C(F)(F)F [GSK461364]	29.0	8.9	12.0	26.2	8.8	5.4	18.0	16.7	69.3%	91.5	28.5%	70.5	29.0	57.5	14.1	31.3	26.8	31.7			
CCn1c(-c2nonc2N)nc2c(C#CC(C)(C)O)ncc(OC[C@H]3CCCNC3)c21 [GSK690693]																			99.2%	99.1%	cell viability (kinase inhibitor library screening) ([1]; 10μΜ): 92.8%; cell viability (kinase inhibitor library screening) ([2]; 1μΜ): 66.4%; cell viability (kinase inhibitor library screening) ([2]; 10μΜ): 17.0%; cell viability (kinase inhibitor library screening) (501Mel cells (parental); 1μΜ): 87.0%; cell viability (kinase inhibitor library screening) (501Mel cells (parental); 10μΜ): 43.2%; cell viability (kinase inhibitor library screening) ([3]; 1μΜ): 93.2%; cell viability (kinase inhibitor library screening) ([3]; 10μΜ): 65.9%; cell viability (kinase inhibitor library screening) ([4]; 1μΜ): 94.0%; cell viability (kinase inhibitor library screening) ([4]; 10μΜ): 18.7%; cell viability (kinase inhibitor library screening) (IGR37 cells (parental); 1μΜ): 104.5%; cell viability (kinase inhibitor library screening) (IGR37 cells (parental); 10μΜ): 68.7%; cell viability (kinase inhibitor library screening) ([5]; 1μΜ): 87.1%; cell viability (kinase inhibitor library screening) ([5]; 10μΜ): 33.9%; cell viability (kinase inhibitor library screening) ([6]; 1μΜ): 96.1%; cell viability (kinase inhibitor library screening) ([6]; 10μΜ): 87.9%
O=C1NC(=O)/C(=C/c2ccc3nccc(-c4ccncc4)c3c2)S1 [GSK1059615]	4.4	62.0	59.6	4.2	43.3	0.262	65.3	1.4	6.4%	75.2	2.2%	58.7	82.5	4.7	45.2	1.5	54.8	3.7			
CCn1cc(-c2ccnc3[nH]c(-c4cccc(CN(C)C)c4)cc23)c(-c2ccc(NC(=O)N(C)C)cc2)n1 [GSK1070916]																			36.0%	47.6%	cell viability (kinase inhibitor library screening) (A375 cells (parental); 1μΜ): 53.8%; cell viability (kinase inhibitor library screening) ([1]; 10μΜ): 34.9%; cell viability (kinase inhibitor library screening) ([2]; 1μΜ): 90.5%; cell viability (kinase inhibitor library screening) ([2]; 10μΜ): 18.1%; cell viability (kinase inhibitor library screening) (501Mel cells (parental); 1μΜ): 94.0%; cell viability (kinase inhibitor library screening) (501Mel cells (parental); 10μΜ): 36.8%; cell viability (kinase inhibitor library screening) ([3]; 1μΜ): 98.0%; cell viability (kinase inhibitor library screening) ([3]; 10μΜ): 46.1%; cell viability (kinase inhibitor library screening) ([4]; 1μΜ): 88.9%; cell viability (kinase inhibitor library screening) ([4]; 10μΜ): 7.5%; cell viability (kinase inhibitor library screening) (IGR37 cells (parental); 1μΜ): 94.1%; cell viability (kinase inhibitor library screening) (IGR37 cells (parental); 10μΜ): 85.3%; cell viability (kinase inhibitor library screening) ([5]; 10μΜ): 50.8%; cell viability (kinase inhibitor library screening) ([6]; 1μΜ): 57.6%; cell viability (kinase inhibitor library screening) ([6]; 10μΜ): 37.9%
